In paper PMC12750388, “Coumarin-1,2,3-Triazole Conjugates as Molecular Scaffolds for the Selective Induction of ROS-Driven Apoptosis in Cancer Cells in the Development of Pyruvate Kinase M2 Inhibitors” (ACS Omega, 2025):

How the values were obtained:
[1] = test system: Primary Gingival Fibroblast; assay: MTT cell viability assay, normal cells; assay type: cell-based, human
Method: The viability of SCC cell lines and primary human fibroblast cells was evaluated using the MTT assay to determine half maximal inhibitory concentration (IC50). Briefly, cells were grown in triplicate in 96-well plates (5 × 10^3 cells/well) until confluence. Then the medium was removed, fresh medium was added, and the cells were returned to the incubator in the presence of different compounds. DMSO at the same concentrations was used as a 100% cell viability control. After 48 h, cells were incubated with 5 mg/mL MTT reagent (3-(4,5-dimethyl-2-thiazolyl)-2,5-diphenyl-2-H-tetrazolium bromide) (Sigma-Aldrich Co., St. Louis, MO, USA) for 3.5 h. After that, formazan crystals were dissolved in MTT solvent solution (DMSO/methanol 1:1 v/v), and the absorbance at 560 nm was evaluated using an EPOCH microplate spectrophotometer (BioTek Instruments, Winooski, VT, USA) with the background absorbance at 670 nm subtracted. Each of the 12 compounds (7a–7l) was tested at six different concentrations, ranging from 6.25 to 200 μM in cancer and normal cell lines. Control (carboplatin) was tested at six different concentrations ranging from 25 μM to 800 μM in cancer cells and from 50 μM to 1600 μM in normal cells.
Half-maximal inhibitory concentration (IC50) values were obtained from the MTT assay of at least three independent replicates through nonlinear regression analysis using GraphPad Prism 5.0 software (Intuitive Software for Science, San Diego, CA, USA). Data were presented as means ± standard deviation (SD). A log dose–response curve (inhibitor vs response) using the least-squares method was used to determine the IC50 and SD from the data. The selectivity index (SI) was calculated as the ratio between the IC50 in normal cells and the IC50 in cancer cells, obtained by dividing the IC50 of normal cells by the IC50 of cancer cells.

Hep-G2 = assay: MTT cell viability assay, Hep-G2; assay type: cell-based, human
Hemolysis assay = assay type: cell-based; details: isolated human erythrocytes, pH 7.5, read-out: level of hemolysis
Method: (§1) A hemolysis assay to evaluate surfactant effects of tested substances was performed using human blood approved by the Research Ethics Committee of Universidade Federal Fluminense (CAAE: 43134721.4.0000.5626). Erythrocytes are isolated upon three repeated centrifugation cycles at 1500 rpm for 15 min. Between each cycle of centrifugation, supernatant was removed, and a pH 7.5 PBS (phosphate-buffered saline) solution supplemented with 10 mM glucose was added to remove lysed erythrocytes. The number of cells was determined in an Automatic Cell Counter (Thermo Fisher, Waltham, MA, USA). Erythrocytes were then plated in 96-well plates at a concentration of 4 × 10^8 cells/well in triplicates, and 10 μL of compounds were added at a final concentration of 300 μM in PBS with glucose (final volume 100 μL). Ten μL of PBS was used as a negative control, and 10 μL of PBS with 0.1% Triton X-100 was used as a positive control. Data reading was performed with EPOCH (BioTek Instruments, Winooski, VT, USA) at an absorbance of 540 nm.

erythrocytes = assay: Hemolysis assay; assay type: cell-based; details: human erythrocytes, 300 μM
Method: as §1

[2] = test system: caspases 3 and 7 in SCC-9 cells; assay: Caspase-Glo 3/7 assay; assay type: cell-based, human; details: SCC-9, 2 × IC50, 12 and 24 h
Method: Analysis of activation of caspases 3 and 7 was assessed by using the Caspase-Glo 3/7 Assay Kit (Promega Corporation, Madison, WI, USA; G8090). The reagent provided by the kit causes cell lysis; therefore, parallelly, a cell viability assay using violet crystal was performed to normalize the detection of active caspases by viable cells. Caspases 3 and 7 procedures consisted of seeding 5 × 10^3 SCC-9 cells in a 96-well plate. […] A plate with wells without cells was used as a control. Cells and cell-free wells remained in treatment at times of interest. Then, caspase activity was detected according to the manufacturer’s instructions. Results were obtained using a TD 20/20 luminometer (Turner Designs, Sunnyvale, CA, USA). […] Then the medium was removed, and the wells were gently washed with PBS. PBS was removed, and cells were fixed with 100% alcohol that was removed after 10 min. Cells were stained with 0.05% violet crystal for 10 min. Wells were gently washed with deionized water, and […] methanol was added to each well, followed by agitation of the plate for 10 min. Absorbance of wells was read in an EPOCH (BioTek Instruments, Winooski, VT, USA) at an absorbance of 595 nm.

SCC-9 cells = assay: MTT cell viability with N-acetyl-L-cysteine pretreatment; assay type: cell-based, human; details: SCC-9, 48 h; 7f 1 × IC50, menadione 20 μM
Method: The production of reactive oxygen species (ROS) was assessed by the detection of hydrogen peroxide (H2O2) using the ROS-Glo H2O2 assay kit (Promega Corporation, Madison, WI, USA; G8820). […] A plate with wells without cells was used as a control. Cells and cell-free wells remained in treatment at times of interest, and 2 h before completion of the times, well volumes were removed to reduce to 40 μL per well. Then the positive control of menadione (Sigma-Aldrich Co., St. Louis, MO, USA), a polycyclic aromatic ketone based on 1,4-naphthoquinone, was used to treat its respective well, and H2O2 substrate from the kit was added for all treatments, followed by the incubation of the plate for the remaining 2 h. Then the detection solution was added, and the plates remained at room temperature for 20 min, following the reading in the TD 20/20 luminometer (Turner Designs, Sunnyvale, CA, USA). The reading of bioluminescence detected is indicated as arbitrary units (a.u.). Additionally, the cell viability was assessed through pretreatment of cells with 10 mM N-acetyl-L-cysteine (NAC) (Sigma-Aldrich Co., St. Louis, MO, USA) for 2 h. […] At the end of the time, the MTT cell viability assay was performed.

## O=C1C=C(OCc2cn(CCCOc3cc(=O)oc4ccccc34)nn2)C(=O)c2ccccc21 [Compound 7f, 2-((1-(3-((2-Oxo-2H-chromen-4-yl)oxy)propyl)-1H-1,2,3-triazol-4-yl)methoxy)naphthalene-1,4-dione]
[1]; Homo sapiens, Fibroblast, MTT, 48 h, normal cells
  IC50: 22.8 µM
[1]; average of SI for SCC-9, SCC-4 and SCC-25 versus gingival fibroblast
  Average SI: 2.26
Hep-G2; HepG2, MTT, human hepatocellular carcinoma
  IC50: 16 µM
Hep-G2; versus human gingival fibroblast
  SI Hep-G2: 1.42
Hemolysis assay
  hemolysis at 300 µM: ~5%
erythrocytes
  hemolytic activity / membrane integrity: lack of significant hemolytic activity
[2]
  caspases 3 and 7 activity, luminescent signal versus DMSO: approximately 2 fold
SCC-9 cells
  cell viability in the presence of 10 mM N-acetyl-L-cysteine (NAC): NAC protected cell death
